The values that follow come from ChEMBL document CHEMBL4371026, “Prodrugs of the cancer cell selective anti-cancer agent (Z)-2-(1H-indol-3-yl)-3-(isoquinolin-5-yl)acrylonitrile (A131) are orally efficacious in a mouse model of resistant colon cancer” (Bioorg Med Chem Lett, 2019).

For data set [1], the system named is HCT-15. Kind of data set: Anticancer activity against paclitaxel-resistant human HCT15 cells xenografted in BALB/c athymic mouse assessed as tumor volume at 80 mg/kg, po administered twice a day for 12 days measured on day 12 (reference value: 779 +/- 144 mm3). The format is functional. Background: In xenograft studies the graft and the host belong to different species.

Data set [2] deals with HCT-15. Description: Anticancer activity against paclitaxel-resistant human HCT15 cells xenografted in BALB/c athymic mouse assessed as tumor volume at 40 mg/kg, ip administered twice a day for 12 days measured on day 12 (reference value: 779 +/- 144 mm3). It counts as functional.
Data set [3] relates to HCT-15. Kind of data set: Anticancer activity against paclitaxel-resistant human HCT15 cells xenografted in BALB/c athymic mouse assessed as tumor growth inhibition at 80 mg/kg, po administered twice a day for 12 days relative to control. It counts as functional. The conditions noted are these: HCT-15, po, 288 h, read-out: TGI.
For data set [4], the system named is HCT-15. Description: Anticancer activity against paclitaxel-resistant human HCT15 cells xenografted in BALB/c athymic mouse assessed as tumor volume at 80 mg/kg, po administered twice a day for 12 days measured on day 9 (reference value: 546 +/- 87 mm3). It counts as functional.
Data set [5] has as its system HCT-15. Description: Anticancer activity against paclitaxel-resistant human HCT15 cells xenografted in BALB/c athymic mouse assessed as tumor volume at 80 mg/kg, po administered twice a day for 12 days measured on day 5 (reference value: 329 +/- 45 mm3). It counts as functional.
In data set [6] the test system is HCT-15. Description: Anticancer activity against paclitaxel-resistant human HCT15 cells xenografted in BALB/c athymic mouse assessed as tumor volume at 40 mg/kg, ip administered twice a day for 12 days measured on day 7 (reference value: 495 +/- 109 mm3). It counts as functional.
Data set [7] has as its system HCT-15. Description: Anticancer activity against paclitaxel-resistant human HCT15 cells xenografted in BALB/c athymic mouse assessed as tumor volume at 40 mg/kg, ip administered twice a day for 12 days measured on day 9 (reference value: 546 +/- 87 mm3). The format is functional.
Data set [8] concerns HCT-15. Description: Anticancer activity against paclitaxel-resistant human HCT15 cells xenografted in BALB/c athymic mouse assessed as tumor volume at 40 mg/kg, ip administered twice a day for 12 days measured on day 5 (reference value: 329 +/- 45 mm3). The format is functional.
Data set [9] concerns HCT-15. Description: Anticancer activity against paclitaxel-resistant human HCT15 cells xenografted in BALB/c athymic mouse assessed as tumor volume at 80 mg/kg, po administered twice a day for 12 days measured on day 3 (reference value: 180 +/- 36 mm3). It counts as functional.
Data set [10] has as its system HCT-15. Kind of data set: Anticancer activity against paclitaxel-resistant human HCT15 cells xenografted in BALB/c athymic mouse assessed as tumor volume at 80 mg/kg, po administered twice a day for 12 days measured on day 7 (reference value: 495 +/- 109 mm3). It counts as functional.
The nature of data set [11]: Solubility of the compound in 10%DMSO/50%PEG400/40%H2O. It counts as physicochemical.
For data set [12], the system named is HCT-15. Kind of data set: Anticancer activity against paclitaxel-resistant human HCT15 cells xenografted in BALB/c athymic mouse assessed as tumor volume at 80 mg/kg, po administered twice a day for 12 days measured on day 1 (reference value: 110 +/- 11 mm3). It counts as functional.
The subject of data set [13] is HCT-15. Kind of data set: Anticancer activity against paclitaxel-resistant human HCT15 cells xenografted in BALB/c athymic mouse assessed as tumor volume at 40 mg/kg, ip administered twice a day for 12 days measured on day 1 (reference value: 110 +/- 11 mm3). It counts as functional.
For data set [14], the system named is HCT-15. Kind of data set: Anticancer activity against paclitaxel-resistant human HCT15 cells xenografted in BALB/c athymic mouse assessed as tumor volume at 40 mg/kg, ip administered twice a day for 12 days measured on day 3 (reference value: 180 +/- 36 mm3). The format is functional.

A word on the solubility: it is how much of the substance goes into solution per volume. As for `CN1CCN(CC(=O)n2cc(/C(C#N)=C/c3cccc4cnccc34)c3ccccc32)CC1.O=C(O)C(F)(F)F`, the Activity in data set [1] is 258 mm3; in data set [2], 244 mm3; in data set [4], 209 mm3; in [5], 143 mm3; in [6], 171 mm3; in data set [7] it was 196 mm3. Also, the Activity was 199 mm3 in [8]; 95 mm3 in [9]; 165 mm3 in data set [10]; 96 mm3 in data set [12]; 100 mm3 in [13]; 109 mm3 in data set [14]. Further, the inhibition in vivo at 80 mg/kg in [3] lay within 75.8 to 76%. In data set [11], this compound gave a solubility of 8000 µg/mL.
